Tests used:
Experiment in all cases: Biofilm Eradication with Calgary Biofilm Device
Type in all cases: cell-based
S. aureus = system: S. aureus
Source text: (§1) VI. Biofilm Eradication with Calgary Biofilm Device [Innovotech]
(§2) Minimum Inhibitory Concentration (MIC) Breakpoints

S. epidermidis = system: S. epidermidis
Source text: as §1, §2

P. aeruginosa = system: P. aeruginosa
Source text: as §1, §2
(§3) Minimum Bactericidal Concentration (MBC) Breakpoints
(§4) Minimum Biofilm Eradication Concentration (MBEC) Breakpoints
(§5) Minimum Concentration that Kills Biofilms with Log R of 3 or Higher

MRS. aureus = system: MRS. aureus
Source text: as §1, §3, §4, §5

MRS. epidermidis = system: MRS. epidermidis
Source text: as §1, §3, §4, §5

With Gentamicin the “Minimum Inhibitory Concentration (MIC) Breakpoints” value (“Minimum Inhibitory Concentration” below) (S. aureus) was <8 µg/mL, the “Minimum Inhibitory Concentration” value (S. epidermidis) was <8 µg/mL and the “Minimum Bactericidal Concentration (MBC) Breakpoints” value (“Minimum Bactericidal Concentration” below) (P. aeruginosa; P. aeruginosa) was <8 µg/mL. The “Minimum Inhibitory Concentration” value (P. aeruginosa; P. aeruginosa) was <8 µg/mL, the “Minimum Biofilm Eradication Concentration (MBEC) Breakpoints” value (P. aeruginosa; P. aeruginosa biofilm) was >1024 µg/mL and the “Minimum Concentration that Kills Biofilms with Log R of 3 or Higher” value (P. aeruginosa; P. aeruginosa biofilm) was 64 ug/mL. The “Log 10 Reduction” value (P. aeruginosa; P. aeruginosa biofilm, at 256 ug/mL, 128 ug/mL and 64 ug/mL) was “greater than three”, the “Minimum Bactericidal Concentration” value (MRS. aureus; MRS. aureus) was <16 µg/mL and the “Minimum Biofilm Eradication Concentration (MBEC) Breakpoints” value (MRS. aureus; MRS. aureus biofilm) was 1024 µg/mL. The “Minimum Concentration that Kills Biofilms with Log R of 3 or Higher” value (MRS. aureus; MRS. aureus biofilm) was 1024 ug/mL, the “Log 10 Reduction” value (MRS. aureus; MRS. aureus biofilm, at only 1024 ug/mL) was “greater than 3” and the “Minimum Bactericidal Concentration” value (MRS. epidermidis; MRS. epidermidis) was <8 µg/mL. For the same substance, the “Minimum Biofilm Eradication Concentration (MBEC) Breakpoints” value (MRS. epidermidis; MRS. epidermidis biofilm) was >1024 µg/mL, the “Minimum Concentration that Kills Biofilms with Log R of 3 or Higher” value (MRS. epidermidis; MRS. epidermidis biofilm) was >1024 ug/mL and the “Log 10 Reduction” value (MRS. epidermidis; MRS. epidermidis biofilm, at any concentration) was ≤ 3.
